According to patent US12636278B2, “HDAC6-inhibited human regulatory T cells” (H. LEE MOFFITT CANCER CENTER AND RESEARCH INSTITUTE, INC., priority 2020, dated 2026):
Entries after “also recorded” stand apart in the source; their conditions may differ.

Tests used:
[1] = test system: T cell responders stimulated by allogeneic DCs; test: Suppression assay of pre-treated nTregs in mixed leukocyte reactions; type: cell-based, human; details: nTregs exposed to drug for 5 days; nTreg:T cell ratio 1:500 or 1:50; no drug in secondary culture; compared to DMSO-treated nTregs
Procedure: The suppressive capacity of DC-allostimulated thymic Tregs previously exposed to HDTK032, tubastatin, or DMSO was tested at different ratios of Treg to T cell responders stimulated by fresh allogeneic DCs (DC:responder T cell ratio of 1:30) in mixed leukocyte reactions. No additional drugs or DMSO were added to the medium. […] Data are from one representative experiment of 3 independent studies performed.
Next we investigated whether HDAC6 blockade impacted nTreg function. Purified nTregs were stimulated with allogeneic moDCs plus IL-2 while exposed to tubastatin, HDTK032, or DMSO for 5 days. The nTregs were harvested and cultured with autologous T cells (nTreg:T cell ratio 1:500 or 1:50) targeting fresh allogeneic moDCs. No additional drugs were added to the secondary cultures.

[2] = test system: allo-specific nTregs; test: Limiting dilution assay (LDA), frequency of allo-specific nTregs after 12 days with allogeneic moDCs; type: cell-based, human; details: for mean fold expansion of allo-specific nTregs: 12 days with unrelated moDCs, compared to DMSO; for frequency of antigen-specific thymic Tregs: after 12 days of culture with allogeneic moDCs
Procedure: (§1) FIG. 1A show purified, human Tregs stimulated by allogeneic, monocyte-derived dendritic cells for 5-6 days, with HDTK032 or DMSO added once on day 0. The medium was also supplemented with IL-2 and IL-15. […] Proliferation was analyzed by Cell Trace Violet dilution among CD4^+, CD127^−, CD25^bright Tregs. […] FIG. 1C is a graph showing on-target alpha-tubulin acetylation of HDTK032 or DMSO treated Tregs. One representative experiment of 3 independent studies is shown. […] One representative donor Treg expansion of 4 independent experiments is shown. *P<0.05.
(§2) HDAC6-deficient mice are known to generate increased amounts of Tregs, both at stead-state in vivo and after polyclonal stimulation in vitro. However, such findings have never been translated to human immunity. Human nTregs (CD4^+, CD127^−, CD25+) were purified by magnetic bead isolation, stimulated with allogeneic moDCs, supplemented with IL-2, and treated with HDTK032, a selective and potent HDAC6 inhibitor, or DMSO (<0.01%) vehicle control once on day 0. After 5-6 days of culture, the nTregs were harvested and enumerated. […] Using the limiting dilution assay (LDA) we measured the precise frequency of allo-specific nTregs after stimulation with unrelated moDCs for 12 days. For these experiments, the HDAC6 inhibitors, HDTK032 and tubastatin, were compared against DMSO. Overall, the mean fold expansion was approximately 130-fold with either HDAC6 inhibitor compared to DMSO (FIG. 1D).

[3] = test system: NSG mice with human skin xenograft; test: Human skin xenograft rejection model with adoptive transfer of pre-treated Tregs; type: in vivo; details: day +21; 5x10^4 nTregs expanded ex vivo with drug (tubastatin 1 μM, HDTK032 2.5 μM); no systemic drug; compared to PBMCs alone
Procedure: NSG mice received a 1 cm^2 split thickness human skin graft. After 30 days of rest to permit engraftment, 5×10^6 human PBMCs (allogeneic to the skin) were injected into the mice. A week prior to PBMC injection, Tregs from the PBMC donor were expanded with mature DCs from the skin donor (Treg:DC ratio 30:1) and cultured for 5-6 days in the presence of DMSO (<0.1%), tubastatin (1 μM), HDTK032 (2.5 μM). In coordination with the PBMC injection, recipient mice were also inoculated with CD25-bead purified, Tregs (5×10^4) expanded with DMSO, tubastatin, HDTK032. A control group received PBMCs alone. FIG. 3A contains representative contour plots showing the purity (>95% pure) of the injected Tregs (CD4^+, CD127^−, CD25^bright, Foxp3+) for each experimental condition. […] Pooled data from 3 independent experiments, with up to 9 mice per experimental group. […]
FIGS. 5A to 5D show pathogenic Th17 cells are decreased in the periphery among mice treated with HDAC6-inhibited human Tregs. […] Recipient spleens were harvested on day +21, stained for Th17s (CD4^+, IL-17^+) or Tregs (CD4^+, CD127^−, CD25^bright, Foxp3^+), and analyzed by flow cytometry. […]
FIGS. 6A to 6C show circulating human Th1 cells are reduced after adoptive transfer of HDAC6-inhibited Tregs. […] Recipient spleens were harvested on day +21, stained for Th1s (CD4^+, IFNγ^+) or Th2s (CD4^+, IL-4^+), and analyzed by flow cytometry. […]

[4] = test system: HDAC6; test: On-target alpha-tubulin acetylation in treated nTregs; type: cell-based, human; details: compared to DMSO
Procedure: as §1
as §2, with “Overall, the mean fold expansion was approximately 130-fold with either HDAC6 inhibitor compared to DMSO (FIG. 1D).” left out

[5] = test system: human nTregs (CD4+, CD127-, CD25+); test: Treg proliferation and expansion after stimulation with allogeneic moDCs, 5-6 days; type: cell-based; details: drug added once on day 0, compared to DMSO
Procedure: as §1
as §2, with “Overall, the mean fold expansion was approximately 130-fold with either HDAC6 inhibitor compared to DMSO (FIG. 1D).” left out

[6] = test system: autologous T responders; test: Suppression assay of treated antigen-specific nTreg with 10:1 autologous T responders and allogeneic DCs; type: cell-based; details: 10:1 autologous T responders; proliferation measured on day +6; compared to DMSO
Description: Suppression assay of DMSO- or HDAC-treated, antigen-specific nTreg in culture with 10:1 autologous T responders and allogeneic DCs. Proliferation measured on day +6. […] PAN=Panobinostat, NEXT=Nexturastat-B, TUBA=Tubastatin. DMSO is vehicle control.

[7] = test system: antigen-specific nTreg; test: Proliferation of antigen-specific nTreg with allogeneic DC, IL-2 and IL-15 (CPM, day +6); type: cell-based; details: drugs added once on day 0; CPM on day +6
Description: Purified nTreg+allogeneic dendritic cells (DC)+IL-2+IL-15. Drugs added once on day 0. Proliferation measured as CPM on day +6.

| Structure (SMILES) | suppressive potency of pre-treated nTregs [1] | mean fold expansion of allo-specific nTregs [2] | frequency of antigen-specific thymic Tregs [2] | skin graft rejection [3] | amount of acetylated α-tubulin [4] | proliferative capacity of nTregs (CellTrace Violet dilution) ([5]; 5-6 days) | amount of nTregs ([5]; after 5-6 days of culture) | suppressive function of nTreg [6] | proliferation and expansion of antigen-specific nTreg [7] |
| --- | --- | --- | --- | --- | --- | --- | --- | --- | --- |
| O=C(NO)c1ccc2c(c1)OC[C@H](c1ccccc1)N(C(=O)C1CCOCC1)C2 [HDTK032, (3S)—N-hydroxy-4-(oxane-4-carbonyl)-3-phenyl-2,3,4,5-tetrahydro-1,4-benzoxazepine-8-carboxamide] | significantly more potent | approximately 130 fold | increase | significantly reduced | increase | increased | significantly increased; also recorded: increases |  |  |
| CCCCN(Cc1ccc(C(=O)NO)cc1)C(=O)Nc1ccc2cn[nH]c2c1 [Nexturastat-B, Nexturastat B] |  |  |  |  |  |  |  | significantly increase |  |
| CN1CCc2c(c3ccccc3n2Cc2ccc(C(=O)NO)cc2)C1 [Tubastatin A, reference compound] | significantly more potent | approximately 130 fold | increase | significantly reduced |  |  |  | significantly increase | significantly enhance |
